Laboratory results published in patent US5633382A, “Histamine H3 -receptor antagonists and therapeutic uses thereof” (The University of Toledo, priority 1994, dated 1997).

Legend:
[1] = Behavioral effects (sleeping) after i.p. injection in mice; type: in vivo, mouse
[2] = system: H3 receptors in the cortex; test: Blood-brain barrier penetration by ex vivo binding of [3H]-Nα-methylhistamine to cortex homogenate; type: in vivo, rat
Protocol: Blood-brain barrier penetration in rats was assessed by an ex vivo binding procedure. Young adult male Long-Evans rats were injected i.p. with saline or H3 antagonists in saline. At various times after injection animals were sacrificed, the cortex was removed, homogenized in 50 mM Na/K-phosphate buffer, pH 7.4, and the binding of 1 nM [^3 H]-N^α -methylhistamine was measured using 400 μg protein of the homogenate. Nonspecific binding was accounted for by the inclusion of excess thioperamide in some samples. Under these conditions, the binding was approximately 90% specific.

histamine H3 receptors = details: cited from earlier work
histamine H3 -receptor = test: Reversal of the soporific effect of (R)α-methylhistamine in mice; type: in vivo, mouse
Protocol: The overall strategy to show central nervous system antagonist activity was to challenge effects of the agonist (R)α-methylhistamine. Therefore, the first objective was to establish a dose response curve for behavioral effects of (R)α-methylhistamine. Male albino CF-1 mice weighing 20-30 g were used. Saline or (R)α-methylhistamine in saline was injected i.p. in a volume ≤0.4 ml. […] Animals were scored for the presence (1) or absence (0) of the behavior and the results were reported as the accumulated score for a 30 minute period (maximum score=9).
To assess the effects of antagonists, they were administered with the (R)α-methylhistamine in saline.

[3] = system: Calcium channel (w-Conotoxin); type: binding; details: 10^-5 M
[4] = system: adenosine, excitory or inhibitory amino acid, dopamine, serotonin, or a broad range of petidergic receptors, or to ion channel proteins, peptide factor or …; test: NOVASCREEN receptor selectivity study, panel as a whole; type: binding; details: 10^-5 M
[5] = Toxicity observed in testing to date; type: in vivo; details: all testing to date, even at high doses
Adenosine = test: NOVASCREEN receptor selectivity assay; type: binding; details: 10^-5 M
Description: (§1) represent the average of duplicate tubes at each of the concentrations

Serotonin 1 = test: NOVASCREEN receptor selectivity assay; type: binding; details: 10^-5 M
Description: as §1

Serotonin 2 = test: NOVASCREEN receptor selectivity assay; type: binding; details: 10^-5 M
Description: as §1

Chloride channel = test: NOVASCREEN receptor selectivity assay; type: binding; details: 10^-5 M
Description: as §1

CCK Peripheral = test: NOVASCREEN receptor selectivity assay; type: binding; details: 10^-5 M
Description: as §1

Benzodiazephine = test: NOVASCREEN receptor selectivity assay; type: binding; details: 10^-5 M
Description: as §1

Bombesin = test: NOVASCREEN receptor selectivity assay; type: binding; details: 10^-5 M
Description: as §1

Dopamine 1 = test: NOVASCREEN receptor selectivity assay; type: binding; details: 10^-5 M
Description: as §1

Glycine (excitatory) = test: NOVASCREEN receptor selectivity assay; type: binding; details: 10^-5 M
Description: as §1

NMDA = test: NOVASCREEN receptor selectivity assay; type: binding; details: 10^-5 M
Description: as §1

[6] = system: Adenylate Cyclase (Forskolin); test: NOVASCREEN receptor selectivity assay; type: binding; details: 10^-5 M
Description: as §1

Substance K = test: NOVASCREEN receptor selectivity assay; type: binding; details: 10^-5 M
Description: as §1

Somatostatin = test: NOVASCREEN receptor selectivity assay; type: binding; details: 10^-5 M
Description: as §1

NPY = test: NOVASCREEN receptor selectivity assay; type: binding; details: 10^-5 M
Description: as §1

Angiotensin = test: NOVASCREEN receptor selectivity assay; type: binding; details: 10^-5 M
Description: as §1

Inositol Triphosphate = test: NOVASCREEN receptor selectivity assay; type: binding; details: 10^-5 M
Description: as §1

Glycine (Inhibitory) = test: NOVASCREEN receptor selectivity assay; type: binding; details: 10^-5 M
Description: as §1

GABAB = test: NOVASCREEN receptor selectivity assay; type: binding; details: 10^-5 M
Description: as §1

Potassium channel = test: NOVASCREEN receptor selectivity assay; type: binding; details: 10^-5 M
Description: as §1

GABAA = test: NOVASCREEN receptor selectivity assay; type: binding; details: 10^-5 M
Description: as §1

[7] = system: Calcium channel (Nifedipine); test: NOVASCREEN receptor selectivity assay; type: binding; details: 10^-5 M
Description: as §1

MK-801 = test: NOVASCREEN receptor selectivity assay; type: binding; details: 10^-5 M
Description: as §1

[8] = system: Protein Kinase C (Phorbol Ester); test: NOVASCREEN receptor selectivity assay; type: binding; details: 10^-5 M
Description: as §1

PCP = test: NOVASCREEN receptor selectivity assay; type: binding; details: 10^-5 M
Description: as §1

CCK Central = test: NOVASCREEN receptor selectivity assay; type: binding; details: 10^-5 M
Description: as §1

Substance P = test: NOVASCREEN receptor selectivity assay; type: binding; details: 10^-5 M
Description: as §1

VIP = test: NOVASCREEN receptor selectivity assay; type: binding; details: 10^-5 M
Description: as §1

Neurotensin = test: NOVASCREEN receptor selectivity assay; type: binding; details: 10^-5 M
Description: as §1

Arg-Vasopressin V1 = test: NOVASCREEN receptor selectivity assay; type: binding; details: 10^-5 M
Description: as §1

ANF (rat) = test: NOVASCREEN receptor selectivity assay; type: binding; details: 10^-5 M
Description: as §1

NGF = test: NOVASCREEN receptor selectivity assay; type: binding; details: 10^-5 M
Description: as §1

Dopamine 2 = test: NOVASCREEN receptor selectivity assay; type: binding; details: 10^-5 M
Description: as §1

[9] = system: Quisqualate (Excitatory Amino Acids); test: NOVASCREEN receptor selectivity assay; type: binding; details: 10^-5 M
Description: as §1

Kainate = test: NOVASCREEN receptor selectivity assay; type: binding; details: 10^-5 M
Description: as §1

EGF = test: NOVASCREEN receptor selectivity assay; type: binding; details: 10^-5 M
Description: as §1

[10] = animal toxicity studies or clinical usage; cited from earlier work
[11] = peptic ulcer patients; cited from earlier work
[12] = dogs, 162 mg/kg/day, repeated dose; cited from earlier work

S=C(NC1CCCCC1)N1CCC(c2cnc[nH]2)CC1 [Thioperamide]
behavior ([1]; thioperamide alone, without agonist): very active, exhibiting normal behaviors
binding of [3H]-Nα-methylhistamine to cortical H3 receptors / blood-brain barrier penetration ([2]; i.p. 2, 5, and 10 mg/kg, 15 min after injection): decreased the binding of [^3 H]-Nα-methylhistamine to H3 receptors in the cortex
dose required to inhibit histamine release from the brain (histamine H3 receptors; rats): relatively high doses are required in vivo
blood-brain-barrier penetration (histamine H3 receptors; suggested by Ganellin et al.): poor penetration through the blood-brain-barrier
inhibition of soporific effect of (R)α-methylhistamine (histamine H3 -receptor; agonist 30 mg/kg): able to inhibit the soporific effect

O=C(CCCCC1CCCCC1)N1CCC(c2c[nH]cn2)CC1 [Compound 1, 4-(1-CYCLOHEXYLVALEROYL-4-PIPERIDYL) 1H-IMIDAZOLE]
Initial Percent Inhibition (Average; N = 2) [3]: 1.9%
blood-brain barrier penetration ([2]; i.p. 50 and 70 mg/kg, one hour after injection): penetrates the blood-brain barrier
significant binding to other receptors [4]: no significant binding
toxicity [5]: no toxicity
Initial Percent Inhibition (Average; N = 2) (Adenosine): -3.0%
Initial Percent Inhibition (Average; N = 2) (Serotonin 1): -3.6%
Initial Percent Inhibition (Average; N = 2) (Serotonin 2): 10.5%
Initial Percent Inhibition (Average; N = 2) (Chloride channel): -3.4%
Initial Percent Inhibition (Average; N = 2) (CCK Peripheral): 6.9%
Initial Percent Inhibition (Average; N = 2) (Benzodiazephine): 2.7%
Initial Percent Inhibition (Average; N = 2) (Bombesin): -5.5%
Initial Percent Inhibition (Average; N = 2) (Dopamine 1): 6.4%
Initial Percent Inhibition (Average; N = 2) (Glycine (excitatory)): 1.8%
Initial Percent Inhibition (Average; N = 2) (NMDA): -4.5%
Initial Percent Inhibition (Average; N = 2) [6]: 2.1%
Initial Percent Inhibition (Average; N = 2) (Substance K): 29.2%
Initial Percent Inhibition (Average; N = 2) (Somatostatin): 4.1%
Initial Percent Inhibition (Average; N = 2) (NPY): -8.7%
Initial Percent Inhibition (Average; N = 2) (Angiotensin): 6.5%
Initial Percent Inhibition (Average; N = 2) (Inositol Triphosphate): 9.2%
Initial Percent Inhibition (Average; N = 2) (Glycine (Inhibitory)): 17.4%
Initial Percent Inhibition (Average; N = 2) (GABAB): 0.0%
Initial Percent Inhibition (Average; N = 2) (Potassium channel): 7.7%
Initial Percent Inhibition (Average; N = 2) (GABAA): 0.6%
Initial Percent Inhibition (Average; N = 2) [7]: 8.1%
Initial Percent Inhibition (Average; N = 2) (MK-801): -8.6%
Initial Percent Inhibition (Average; N = 2) [8]: 0.9%
Initial Percent Inhibition (Average; N = 2) (PCP): 9.7%
Initial Percent Inhibition (Average; N = 2) (CCK Central): 18.6%
Initial Percent Inhibition (Average; N = 2) (Substance P): 20.0%
Initial Percent Inhibition (Average; N = 2) (VIP): 17.1%
Initial Percent Inhibition (Average; N = 2) (Neurotensin): -10.5%
Initial Percent Inhibition (Average; N = 2) (Arg-Vasopressin V1): 10.1%
Initial Percent Inhibition (Average; N = 2) (ANF (rat)): 0.1%
Initial Percent Inhibition (Average; N = 2) (NGF): 17.1%
Initial Percent Inhibition (Average; N = 2) (Dopamine 2): 3.5%
Initial Percent Inhibition (Average; N = 2) [9]: -1.8%
Initial Percent Inhibition (Average; N = 2) (Kainate): 42.1%
Initial Percent Inhibition (Average; N = 2) (EGF): 18.1%
inhibition of soporific effect of (R)α-methylhistamine (histamine H3 -receptor; agonist 25 mg/kg): inhibited the soporific effect

CN/C(=N/CCSCc1nc[nH]c1C)NC#N [cimetidine]
granulocytopenia or other side effects [10]: did not cause granulocytopenia, or any other side effects

C[C@@H](N)Cc1c[nH]cn1 [(R)α-methylhistamine]
sleeping ([1]; i.p. 15 to 35 mg/kg, one hour after injection, also evident at 30 minutes): dose-dependent (range of 15 to 35 mg/kg) increase in sleeping

O=C(CCCCC1CCCCC1)N1CCC(c2c[nH]cn2)CC1 [Compound 2016]
reversal of soporific effect of R(-)-alphamethylhistamine (histamine H3 -receptor; both drugs administered peripherally): reverses the soporific effect

C/N=C(\S)NCCSCc1[nH]cnc1C [metiamide]
granulocytopenia [11]: low incidence of granulocytopenia
agranulocytosis [12]: incidences of agranulocytosis
